These results are taken from article PMC12104086, “Identification of a multiple DAMP scavenger mimicking the DAMP-binding site of TLR4 to ameliorate lethal sepsis” (Frontiers in Immunology, 2025).

Data set [1] concerns mouse peritoneal macrophages. The data set can be described thus: LDH cytotoxicity assay. The class given is cell-based. The conditions noted are these: 20 h, n=3-4, versus PBS. As to the method:
(§1) Supplemental Figure 6: Toxicity Assay of OP18
(§2) Note: (A) RAW264.7 cells were treated with OP18 for 20 h and MTS assay was performed using a CellTiter 96® AQueous Non-Radioactive Cell Proliferation Assay kit (Promega, Madison, Wisconsin) according to the manufacturer’s instructions. (B) Mouse peritoneal macrophages were treated with OP18 for 20 h and CyQUANT™ LDH Cytotoxicity Assay (Thermo Fisher Scientific, Waltham, MA) was performed according to the manufacturer’s instruction s. Data are expressed as mean ± SEM (n=3-4 samples/group) and compared by one -way ANOVA and a Tukey’s multiple comparison test. ns: not significant, *p < 0.05 versus PBS (C, D) Sham mice were treated with OP18 for 20h and blood were collected. (C) IL-6 and (D) TNFα were […]
(§3) Data are expressed as mean ± SEM and compared by unpaired two -tailed Student’s t-test. not significant (ns) vs sham.
(§4) (1 picture or pasted object on this page, not shown here)

Data set [2] deals with RAW264.7 cells. Briefly: MTS cytotoxicity assay. The class given is cell-based, mouse. The conditions noted are these: 20 h, n=3-4, versus PBS. Here is the method: as §1, §2, §3, §4
(Tetrazolium assays rely on reduction of a dye to a coloured formazan, in cell work by metabolically active cells.)

Data set [3] has as its system C57BL/6 mice (sham). Briefly: Cytokine production in sham mice treated with OP18. Type of data set: in vivo, mouse. The conditions noted are these: OP18-treated sham versus sham, 20 h, blood, ELISA. As to the method: as §1, §2, §3, §4
In general terms: ELISA stands for enzyme-linked immunosorbent assay.

Data set [4] has as its system C57BL/6 mice, cecal ligation and puncture (CLP). Briefly: CLP lethal sepsis model, 20 h: plasma DAMPs, serum cytokines and organ injury markers. Type of data set: in vivo, mouse. The following applies: 80 nmol/kg i.p. once at abdominal closure, 20 h after CLP; n = 7–9; scrambled: vs sham; OP18: vs scrambled peptide; p < 0.05. Here is the method:
Polymicrobial sepsis was induced in mice by cecal ligation and puncture (CLP) ([7], [23]). Mice were anesthetized with isoflurane, and a midline abdominal incision was performed. The cecum was ligated with a 4–0 silk suture 1 cm proximal from its distal extremity and puncture using a 22-G needle was made twice (through and through) for a 20-h study and once for a survival study. A control (scrambled peptide) or OP18, both with 80 nmol/kg body weight (BW), was injected intraperitoneally (i.p.) before the closure. Sham animals were subjected to a laparotomy without CLP. Following the surgery, 1 mL of saline was injected subcutaneously to avoid surgery-induced dehydration, and 0.05 mg/kg buprenorphine was injected subcutaneously as an analgesic; 20 h after the surgery, the blood and lungs were collected. In the 20-h model, antibiotics were not administered, whereas in the survival study, 0.5 mg/kg BW of Imipenem was injected subcutaneously.
Blood was collected, centrifuged at 1,000 × g for 10 min, and plasma or serum was separated. Plasma levels of eCIRP, HMGB1, and histone H3 were analyzed by ELISA kits according to the manufacturer’s instruction (eCIRP from American Research Products, Inc., Waltham, MA, USA, HMGB1 from Invitrogen, Thermo Fisher Scientific, and histone H3 from LS Bio, Shirley, MA, USA). Serum levels of IL-6 and TNF-α were analyzed by ELISA kits (IL-6 and TNF-α both from BD Biosciences, Franklin Lakes, NJ, USA) according to the manufacturer’s instruction. Serum levels of aspartate aminotransferase (AST), lactate dehydrogenase (LDH), blood urea nitrogen (BUN), and creatinine (Cre) were measured by specific colorimetric enzymatic assays (Pointe Scientific, Canton, MI). Absorbance was measured on a Synergy Neo2 (Agilent Technologies) according to the manufacturer’s instructions.
Figure 4 OP18 alleviates systemic inflammation and tissue injury in sepsis. Intraperitoneal injection of 80 nmol/kg scrambled peptide or 80 nmol/kg OP18 was performed on CLP mice before skin closure. Blood and lungs were collected 20 h after CLP. (A–C) Plasma levels of (A) eCIRP, (B) HMGB1, and (C) histone H3. (D–I) Serum levels of (D) IL-6, (E) TNF-α, (F) AST, (G) LDH, (H) BUN, and (I) Cre. Data are expressed as mean ± SEM (n = 7–9 samples/group) and were compared using one-way ANOVA followed by Tukey’s multiple comparison test. ^* p < 0.05 versus sham; ^# p < 0.05 versus scrambled peptide. Experiments were performed three times, and all data were used for analysis.

Turning to `CC[C@H](C)[C@H](NC(=O)[C@H](CC(N)=O)NC(=O)[C@H](CO)NC(=O)[C@H](CO)NC(=O)[C@H](CC(N)=O)NC(=O)[C@H](Cc1ccccc1)NC(=O)[C@H](CC(N)=O)NC(=O)CN)C(=O)N[C@@H](CCSC)C(=O)N[C@@H](CCCCN)C(=O)N[C@H](C(=O)N[C@@H](CS)C(=O)N[C@@H](CC(C)C)C(=O)N[C@@H](CCC(N)=O)C(=O)N[C@@H](CC(N)=O)C(=O)N[C@@H](CCCNC(=N)N)C(=O)NCC(=O)N[C@@H](CC(=O)O)C(=O)O)[C@@H](C)O` [OP18], the “cytotoxicity on macrophages (LDH)” value in data set [1] is “did not observe any cytotoxicity”. Besides, in data set [2], the “cytotoxicity on macrophages (MTS)” value is “did not observe any cytotoxicity”. Also, in data set [3], the “IL-6 in sham mice” value was “No significant difference” and the “TNFα in sham mice” value was “No significant difference”.
For the compound “NRKINMGSFTQCSNNLGD [scrambled peptide, scrambled control peptide for OP18 ([…])]”, in data set [4], the “plasma HMGB1 level” value is reported as “significantly elevated”, the “plasma eCIRP level” value is listed as “significantly elevated”, the “plasma histone H3 level” value was “significantly elevated” and the “serum AST” value is given as “significantly elevated”. In addition, in data set [4], the “serum BUN” value is listed as “significantly elevated”, the “serum Cre” value was “significantly elevated”, the “serum IL-6” value was “significantly elevated” and the “serum LDH” value was “significantly elevated”. Further, in data set [4], the “serum TNF-α” value was “significantly elevated”.
